In patent US8350027B2, “Dual-acting pyrazole antihypertensive agents” (Theravance, Inc., priority 2009, dated 2013):

Experiments:
[1] = molecular target: T1, human AT1 receptor (Homo sapiens, UniProt P30556); assay: AT1 radioligand binding assay (displacement of [Eu]AngII); details: membranes of CHO-K1 cells expressing cloned human AT1 receptor; values given as lower bounds; read-out: AT1 pKi (converted)
T1 construct: expressed in transfected cells; host or cells: CHO-K1
T1 sequence (P30556 1-359): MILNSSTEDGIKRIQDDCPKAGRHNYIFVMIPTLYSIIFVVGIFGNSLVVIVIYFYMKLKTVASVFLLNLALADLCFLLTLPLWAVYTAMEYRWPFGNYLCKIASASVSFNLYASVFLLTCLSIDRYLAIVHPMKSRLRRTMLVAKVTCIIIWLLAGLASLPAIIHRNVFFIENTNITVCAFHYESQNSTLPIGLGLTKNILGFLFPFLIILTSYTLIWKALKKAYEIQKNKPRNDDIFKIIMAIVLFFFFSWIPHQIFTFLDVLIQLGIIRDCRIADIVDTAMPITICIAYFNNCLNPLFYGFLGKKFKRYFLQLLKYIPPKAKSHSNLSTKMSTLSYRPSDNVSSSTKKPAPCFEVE
Method in brief: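 Membranes from CHO-K1 cells stably expressing cloned human AT1, 0.2 μg protein, in 50 mM Tris/HCl pH 7.5, 5 mM MgCl2, 0.025% BSA. Compounds displaced [Eu]AngII over 120 min in the dark at room temperature or 37° C; filter-bound TRF read. Nonspecific binding with 10 μM angiotensin II; IC50 converted to Ki via Cheng-Prusoff, reported as pKi.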

[2] = molecular target: T2, NEP enzyme (Homo sapiens, UniProt P08473); assay: NEP enzyme inhibition assay (fluorogenic peptide substrate); format: biochemical; details: values given as lower bounds; * = prodrugs, may not exhibit NEP activity in an in vitro assay; read-out: NEP pIC50 (converted)
T2 construct: purchased R&D Systems, Minneapolis, Minn; 1182-ZN
T2 sequence (P08473 52-750 limits assumed): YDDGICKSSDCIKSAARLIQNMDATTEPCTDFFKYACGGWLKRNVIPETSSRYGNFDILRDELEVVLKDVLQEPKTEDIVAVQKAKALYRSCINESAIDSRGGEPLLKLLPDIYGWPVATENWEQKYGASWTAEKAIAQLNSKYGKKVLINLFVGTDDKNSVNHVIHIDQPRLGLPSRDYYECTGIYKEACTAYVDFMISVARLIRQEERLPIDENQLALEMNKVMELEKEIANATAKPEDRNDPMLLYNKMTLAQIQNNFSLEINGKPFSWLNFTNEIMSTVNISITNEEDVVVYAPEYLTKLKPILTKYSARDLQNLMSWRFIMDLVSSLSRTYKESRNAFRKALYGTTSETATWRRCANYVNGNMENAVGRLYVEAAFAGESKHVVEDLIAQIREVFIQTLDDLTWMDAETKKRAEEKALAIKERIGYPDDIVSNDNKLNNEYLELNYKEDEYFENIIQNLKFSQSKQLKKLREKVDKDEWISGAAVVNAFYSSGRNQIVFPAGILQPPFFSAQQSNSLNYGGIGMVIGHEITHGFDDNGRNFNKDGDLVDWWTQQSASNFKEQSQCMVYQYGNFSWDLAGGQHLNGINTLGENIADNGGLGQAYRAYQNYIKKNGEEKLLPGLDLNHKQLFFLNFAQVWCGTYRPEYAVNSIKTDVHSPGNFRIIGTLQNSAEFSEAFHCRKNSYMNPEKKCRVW
Method in brief: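 Recombinant human NEP was run with Mca-BK2 (10 μM) at room temperature in Tris buffer with 1 μM Zn. Compounds (10 μM–20 pM, 12 points) were pre-equilibrated 10 min, then reacted 20 min and acid-stopped. Fluorescence ex 320/em 405 nm, one-site competition fit gives pIC50. Thiol compounds may be pre-treated with 400 μM TCEP.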

Compound | Ki [1] [nM] | IC50 [2] [nM]
CCCc1cc(C(=O)N[C@H](Cc2ccccc2)[C@@H](O)C(=O)O)nn1Cc1c(F)cc(-c2ccccc2S(=O)(=O)NC(C)=O)cc1F [Example 6-19, (2R,3R)-3-(1-((2′-(N-acetylsulfamoyl)-3,5-difluorobiphenyl-4-yl)methyl)-5-propyl-1H-pyrazole-3-carboxamido)-2-hydroxy-4-phenylbutanoic acid] | ≤ 10 | ≤ 100
CCCc1cc(C(=O)N[C@@H](CC(=O)NO)Cc2ccccc2)nn1Cc1c(F)cc(-c2ccccc2S(=O)(=O)NC(C)=O)cc1F [Example 6-20, 1-(2′-Acetylsulfamoyl-3,5-difluorobiphenyl-4-ylmethyl)-5-propyl-1H-pyrazole-3-carboxylic acid ((R)-1-hydroxycarbamoylmethyl-2-phenylethyl)amide] | ≤ 10 | ≤ 100
CCCc1cc(C(=O)NC(CC(=O)NO)CC(C)C)nn1Cc1ccc(-c2ccccc2S(=O)(=O)NC(C)=O)c(F)c1 (centres unmarked) [Example 6-21, 1-(2′-Acetylsulfamoyl-2-fluorobiphenyl-4-ylmethyl)-5-propyl-1H-pyrazole-3-carboxylic acid (1-hydroxycarbamoylmethyl-3-methylbutyl)amide] | ≤ 10 | ≤ 100
CCCc1cc(C(=O)N[C@@H](Cc2ccccc2)CN(O)C=O)nn1Cc1ccc(-c2ccccc2S(=O)(=O)NC(C)=O)cc1 [Example 6-22, 1-(2′-Acetylsulfamoylbiphenyl-4-ylmethyl)-5-propyl-1H-pyrazole-3-carboxylic acid [(S)-1-benzyl-2-(formylhydroxyamino)ethyl]amide] | ≤ 10 | ≤ 100
CCCc1cc(C(=O)N[C@@H](CC(C)C)CN(O)C=O)nn1Cc1ccc(-c2ccccc2S(=O)(=O)NC(C)=O)cc1 [Example 6-23, 1-(2′-Acetylsulfamoyl-biphenyl-4-ylmethyl)-5-propyl-1H-pyrazole-3-carboxylic acid {(S)-1-[(formylhydroxyamino)methyl]-3-methylbutyl}amide] | ≤ 10 | ≤ 100
CCOc1cc(C(=O)N[C@@H](CC(=O)O)Cc2ccccc2)nn1Cc1ccc(-c2ccccc2S(=O)(=O)NC(C)=O)cc1F [Example 6-24, (R)-3-{[1-(2′-Acetylsulfamoyl-3-fluorobiphenyl-4-ylmethyl)-5-ethoxy-1H-pyrazole-3-carbonyl]amino}-4-phenylbutyric acid] | ≤ 10 | ≤ 10000
CCCc1cc(C(=O)N[C@@H](CC(=O)O)Cc2ccccc2C(F)(F)F)nn1Cc1ccc(-c2ccccc2S(=O)(=O)NC(C)=O)cc1 [Example 6-25, (R)-3-{[1-(2′-Acetylsulfamoylbiphenyl-4-ylmethyl)-5-propyl-1H-pyrazole-3-carbonyl]amino}-4-(2-trifluoromethylphenyl)butyric acid] | ≤ 10 | ≤ 1000
CCCc1cc(C(=O)N[C@@H](CC(=O)O)Cc2ccccc2C)nn1Cc1ccc(-c2ccccc2S(=O)(=O)NC(C)=O)cc1 [Example 6-26, (R)-3-{[1-(2′-Acetylsulfamoylbiphenyl-4-ylmethyl)-5-propyl-1H-pyrazole-3-carbonyl]amino}-4-o-tolylbutyric acid] | ≤ 10 | ≤ 1000
CCCc1cc(C(=O)N[C@@H](CC(=O)O)Cc2ccccc2Cl)nn1Cc1ccc(-c2ccccc2S(=O)(=O)NC(C)=O)cc1 [Example 6-27, (R)-3-{[1-(2′-Acetylsulfamoylbiphenyl-4-ylmethyl)-5-propyl-1H-pyrazole-3-carbonyl]amino}-4-(2-chlorophenyl)butyric acid] | ≤ 10 | ≤ 1000
CCCc1cc(C(=O)N[C@@H](CC(=O)O)Cc2ccccc2)nn1Cc1ccc(-c2ccccc2S(=O)(=O)NC(C)=O)cc1 [Example 6-28, (R)-3-{[1-(2′-Acetylsulfamoylbiphenyl-4-ylmethyl)-5-propyl-1H-pyrazole-3-carbonyl]amino}-4-phenylbutyric acid] | ≤ 10 | ≤ 10000
CCCc1cc(C(=O)N[C@H](Cc2ccccc2)[C@@H](O)C(=O)O)nn1Cc1ccc(-c2ccccc2S(=O)(=O)NC(=O)NCC)cc1 [Example 7-1, (2R,3R)-3-(1-((2′(N-(ethylcarbamoyl)sulfamoyl)biphenyl-4-yl)methyl)-5-propyl-1H-pyrazole-3-carboxamido)-2-hydroxy-4-phenylbutanoic acid] | ≤ 10 | ≤ 1000
CCCc1cc(C(=O)N[C@H](Cc2ccccc2)[C@@H](O)C(=O)O)nn1Cc1ccc(-c2ccccc2S(=O)(=O)NC(=O)C2CC2)cc1 [Example 7-2, (2R,3R)-3-({1-[2′-(Cyclopropanecarbonylsulfamoyl)biphenyl-4-ylmethyl]-5-propyl-1H-pyrazole-3-carbonyl}amino)-2-hydroxy-4-phenylbutyric acid] | ≤ 10 | ≤ 100
CCCc1cc(C(=O)N[C@H](Cc2ccccc2)[C@@H](O)C(=O)O)nn1Cc1ccc(-c2ccccc2S(=O)(=O)NC(=O)c2ccccc2F)cc1 [Example 7-3, (2R,3R)-3-({1-[2′-(2-Fluorobenzoylsulfamoyl)biphenyl-4-ylmethyl]-5-propyl-1H-pyrazole-3-carbonyl}amino)-2-hydroxy-4-phenylbutyric acid] | ≤ 10 | ≤ 1000
CCCc1cc(C(=O)N[C@H](Cc2ccccc2)[C@@H](O)C(=O)O)nn1Cc1ccc(-c2ccccc2S(=O)(=O)NC(=O)c2ccncc2)cc1 [Example 7-4, (2R,3R)-2-Hydroxy-4-phenyl-3-[(5-propyl-1-{2′-[(pyridine-4-carbonyl)sulfamoyl]biphenyl-4-ylmethyl}-1H-pyrazole-3-carbonyl)amino]butyric acid] | ≤ 10 | ≤ 1000
CCCc1cc(C(=O)N[C@H](Cc2ccccc2)[C@@H](O)C(=O)O)nn1Cc1ccc(-c2ccccc2S(=O)(=O)NC(=O)c2cc(C)on2)cc1 [Example 7-5, (2R,3R)-2-Hydroxy-3-[(1-{2′[(5-methylisoxazole-3-carbonyl)sulfamoyl]biphenyl-4-ylmethyl}-5-propyl-1H-pyrazole-3-carbonyl)amino]-4-phenylbutyric acid] | ≤ 10 | ≤ 1000
CCCc1cc(C(=O)N[C@H](Cc2ccccc2)[C@@H](O)C(=O)O)nn1Cc1ccc(-c2ccccc2S(=O)(=O)NC(=O)c2ccno2)cc1 [Example 7-6, (2R,3R)-2-Hydroxy-3-[(1-{2′-[(isoxazole-5-carbonyl)sulfamoyl]biphenyl-4-ylmethyl}-5-propyl-1H-pyrazole-3-carbonyl)amino]-4-phenylbutyric acid] | ≤ 10 | ≤ 1000
CCCc1cc(C(=O)N[C@H](Cc2ccccc2)[C@@H](O)C(=O)O)nn1Cc1ccc(-c2ccccc2S(=O)(=O)NC(=O)OCC)cc1 [Example 7-7, (2R,3R)-3-(1-((2′-(N-(ethoxycarbonyl)sulfamoyl)biphenyl-4-yl)methyl)-5-propyl-1H-pyrazole-3-carboxamido)-2-hydroxy-4-phenylbutanoic acid] | ≤ 10 | ≤ 1000
CCCc1cc(C(=O)N[C@H](Cc2ccccc2)[C@@H](O)C(=O)O)nn1Cc1ccc(-c2ccccc2S(=O)(=O)NC(=O)COC)cc1 [Example 7-8, (2R,3R)-2-Hydroxy-3-({1-[2′-(2-methoxyacetylsulfamoyl)biphenyl-4-ylmethyl]-5-propyl-1H-pyrazole-3-carbonyl}amino)-4-phenylbutyric acid] | ≤ 10 | ≤ 1000
CCCc1cc(C(=O)N[C@H](Cc2ccccc2)[C@@H](O)C(=O)O)nn1Cc1ccc(-c2ccccc2S(=O)(=O)NC(=O)c2ccccn2)cc1 [Example 7-9, (2R,3R)-2-Hydroxy-4-phenyl-3-[(5-propyl-1-{2′-[(pyridine-2-carbonyl)sulfamoyl]biphenyl-4-ylmethyl}-1H-pyrazole-3-carbonyl)amino]butyric acid] | ≤ 10 | ≤ 1000
CCCc1cc(C(=O)N[C@H](Cc2ccccc2)[C@@H](O)C(=O)O)nn1Cc1ccc(-c2ccccc2S(=O)(=O)NC(=O)CC)cc1 [Example 7-10, (2R,3R)-2-Hydroxy-4-phenyl-3-{[1-(2′-propionylsulfamoylbiphenyl-4-ylmethyl)-5-propyl-1H-pyrazole-3-carbonyl]amino}butyric acid] | ≤ 10 | ≤ 100
CCCc1cc(C(=O)N[C@H](Cc2ccccc2)[C@@H](O)C(=O)O)nn1Cc1ccc(-c2ccccc2S(=O)(=O)NC(=O)NC)cc1 [Example 7-11, (2R,3R)-2-hydroxy-3-(1-((2′-(N-(methylcarbamoyl)sulfamoyl)biphenyl-4-yl)methyl)-5-propyl-1H-pyrazole-3-carboxamido)-4-phenylbutanoic acid] | ≤ 10 | ≤ 100
CCCc1cc(C(=O)N[C@H](Cc2ccccc2)[C@@H](O)C(=O)O)nn1Cc1ccc(-c2ccccc2S(=O)(=O)NC(=O)c2ccccc2)cc1 [Example 7-12, (2R,3R)-3-{[1-(2′-Benzoylsulfamoylbiphenyl-4-ylmethyl)-5-propyl-1H-pyrazole-3-carbonyl]amino}-2-hydroxy-4-phenylbutyric acid] | ≤ 10 | ≤ 1000
